The nature of data set [1]: Paclitaxel analysis in rabbit lung implant study (blood, pleural fluid, lung tissue). The format is in vivo. The procedure: An incision at the 8th intercostal space was made into the thorax of anesthetized rabbits. The Caudal lobe was partially released from the underlying ligament. Implants were affixed as a sandwich at the apical end of a resected caudal lobe. In all cases, 2 implants top & bottom were preloaded onto a 30 mm GIA stapler. Stapling and resection were performed using a 30 mm GIA stapler. Animals were sutured, air was removed from the thorax and the wound covered. […] A general schematic of the reset procedure is provided by FIG. 13A-D. For example, the stapler jaws (with the implant) are positioned to grasp the tissue (FIG. 13A). Staples are then deployed through the implant securing it to the tissue at the same time as the internal blade bisects the stapled tissue (FIG. 13B). The now bisected implant is released from the stapler. The resected tissue is removed.

The nature of data set [2]: Therapeutic concentration range for paclitaxel.

In turn, `CC(=O)O[C@H]1C(=O)[C@@]2(C)[C@H]([C@H](OC(=O)c3ccccc3)[C@]3(O)C[C@H](OC(=O)[C@H](O)[C@@H](NC(=O)c4ccccc4)c4ccccc4)C(C)=C1C3(C)C)[C@]1(OC(C)=O)CO[C@@H]1C[C@@H]2O` [paclitaxel] had a concentration at 14 days in data set [1] (blood and tissues outside the thorax, rabbit, day 14) of under 0.5 ng/mL. The “Paclitaxel level in pleural fluid” value in data set [1] (paclitaxel coated buttress implants) lay in the range of 10 to 100 nM. For the same compound, in data set [1] (rabbit, 2 days, 7 days and terminally at 14 days), the “Paclitaxel concentration in blood (below quantifiable limits)” value was under 500 pg/mL. In data set [2], the IC90 was about 50 nM and the “IC90 (therapeutic concentration range)” value is on record as “about 42.5 ng/ml”.

One may read the IC90 as the concentration at which the effect reaches the 90% level. Read a low IC90 as greater potency.

Source of the values: patent US10888530B2, “Implantable drug delivery compositions and methods of use thereof” (AcuityBio Corporation, priority 2015, dated 2021).
